In data set [1] the test system is human platelet. Nature of the data set: Inhibition of ADP-induced human platelet aggregation. The note with it: aggregation induced by 2.5 μM ADP, mean of at least two determinations. The class given is cell-based. Here is the method:
Such aggregated and activated platelets produce vasoactive substances such as thromboxane and serotonin that may cause harmful vasoconstriction and vascular remodeling.[13] […] This secondary assay was carried out as previously described,[14] with aggregation induced by 2.5 μM ADP in the presence or absence of IP receptor agonists.

The nature of data set [2]: Stability in rat microsome preparations. The class given is in vitro ADME. The note with it: incubation at 37 °C, rat microsomes; read-out: rat MS, T1/2. From the text: (§1) Table 1 Screening Data for Selected Analogues ^a | column: human and rat MS, T1/2 (min) ^g
Data set [3] addresses rat IP (Rattus norvegicus, UniProt P43253). Nature of the data set: HTRF cAMP assay, recombinant rat IP receptor. The following applies: for EC50: HTRF (cAMP) rat IP receptor assay, mean of at least three determinations; for Emax: read-out: rIP % IA. The arrangement: expressed in transfected cells. The class given is cell-based. Here is the method: (§2) The new compounds were tested for functional agonist activity in a standard (Cisbio) cAMP assay using recombinant IP or DP1 receptors stably expressed in CHO-K1 cells. Clonal cell lines were derived following standard protocols, but receptor expression levels were kept to a minimum to preclude receptor reserve effects.
(§3) For development of cAMP accumulation assays, recombinant IP or DP1 receptors were stably expressed in CHO-K1 cells and clonal cell lines derived following standard protocols. Receptor expression levels were minimized to preclude receptor reserve effects. HTRF cAMP assays were performed according to the manufacturer’s instructions (Cisbio, cAMP Dynamic 2 assay kit; no. 62AM4PEJ). IP receptor-expressing cells were harvested, resuspended in assay buffer (PBS containing 1 mM IBMX and 0.2% BSA) at a density of 200 000 cells per mL, and dispensed into 384-well assay plates (PerkinElmer Proxiplate no. 6008280) at 5 μL per well. Test compounds were solubilized and serially diluted in DMSO using 5-fold dilutions to generate a 10-point dose–response curve with a top concentration of 10 μM. The samples were then further diluted in PBS to achieve a 2× stock. Diluted compounds were then transferred to a triplicate set of assay plates (5 μL per well). After a 1 h incubation at room temperature, 5 μL of cAMP-D2 reagent diluted in lysis buffer was added to each well followed by 5 μL of cryptate reagent. Plates were then incubated at room temperature for 1 h prior to reading. Time-resolved fluorescence measurements were collected on PerkinElmer Envision or BMG Pherastar microplate readers.
Background: TR-FRET usually uses a lanthanide donor and a delayed reading to cut background.

The nature of data set [4]: Stability in human microsome preparations. It counts as in vitro ADME. The note with it: incubation at 37 °C, human microsomes; read-out: human MS, T1/2.
Text: as §1

Data set [5] deals with IP (Homo sapiens, UniProt P43119). The data set can be described thus: HTRF cAMP assay, recombinant human IP receptor stably expressed in CHO-K1 cells. It counts as cell-based. The arrangement: expressed in transfected cells. The following applies: for Emax: CHO-K1, read-out: hIP % IA; for EC50: HTRF (cAMP) human IP receptor assay, mean of at least three determinations. On the procedure:
as §2, §3

A short description of data set [6]: Rat PK (iv and oral). The class given is in vivo. The following applies: for AUC(0-inf) / bioavailability: Sprague-Dawley, plasma; for AUC(0-inf): after oral administration 10 mg/kg (5m 10.5); for bioavailability: po, 10 mg/kg; for Cmax / Tmax: po 10 mg/kg (5m 10.5); for T1/2: terminal half-life after iv 2 mg/kg (5m 2.1); for Clobs: total clearance, iv 2 mg/kg (5m 2.1).

The target of data set [7] is T1, human DP1 receptor (Homo sapiens, UniProt Q13258).
T1 construct: expressed in transfected cells
T1 sequence (Q13258 1-359): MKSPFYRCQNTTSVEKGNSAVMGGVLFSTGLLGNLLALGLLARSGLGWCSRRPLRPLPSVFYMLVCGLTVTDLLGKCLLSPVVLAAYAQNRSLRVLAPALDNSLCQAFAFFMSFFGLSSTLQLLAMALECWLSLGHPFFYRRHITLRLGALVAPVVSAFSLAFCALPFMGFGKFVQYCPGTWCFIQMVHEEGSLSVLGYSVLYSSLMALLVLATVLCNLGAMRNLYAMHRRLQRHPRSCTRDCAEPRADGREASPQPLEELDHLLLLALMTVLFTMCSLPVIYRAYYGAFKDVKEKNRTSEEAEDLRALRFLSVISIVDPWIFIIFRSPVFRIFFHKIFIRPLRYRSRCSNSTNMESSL
Nature of the data set: HTRF cAMP assay, recombinant human DP1 receptor in CHO-K1 cells. The note with it: for Emax: CHO-K1, intrinsic activity relative to 1 μM PGD2, read-out: hDP1 % IA. It counts as cell-based. Here is the method:
as §2, §3

Data set [8] addresses EP4 (Homo sapiens, UniProt P35408). The data set can be described thus: cAMP HTRF agonist assay, EP4. The note with it: cAMP HTRF agonist assay. It counts as cell-based. From the text: (§4) Table Sup2: Data with some comparator compounds in functional assays.
(§5) Compound DP1 EP1 EP2 EP3v6 EP4
(§6) EC50, µµµµM (% I.A) EC50, µµµµM (% I.A) EC50, µµµµM (% I.A) EC50, µµµµM (% I.A) EC50, µµµµM (% I.A)
(§7) n = 3 n = 2 n = 8 n = 6 n = 6 […]

Data set [9] concerns the target EP2 (Homo sapiens, UniProt P43116). Nature of the data set: cAMP HTRF agonist assay, EP2. It counts as cell-based. The following applies: cAMP HTRF agonist assay. The source says: Table Sup2: Data with some comparator compounds in functional assays. […]
The target of data set [10] is T2, EP1 (Homo sapiens, UniProt P34995).
T2 sequence (P34995 1-402): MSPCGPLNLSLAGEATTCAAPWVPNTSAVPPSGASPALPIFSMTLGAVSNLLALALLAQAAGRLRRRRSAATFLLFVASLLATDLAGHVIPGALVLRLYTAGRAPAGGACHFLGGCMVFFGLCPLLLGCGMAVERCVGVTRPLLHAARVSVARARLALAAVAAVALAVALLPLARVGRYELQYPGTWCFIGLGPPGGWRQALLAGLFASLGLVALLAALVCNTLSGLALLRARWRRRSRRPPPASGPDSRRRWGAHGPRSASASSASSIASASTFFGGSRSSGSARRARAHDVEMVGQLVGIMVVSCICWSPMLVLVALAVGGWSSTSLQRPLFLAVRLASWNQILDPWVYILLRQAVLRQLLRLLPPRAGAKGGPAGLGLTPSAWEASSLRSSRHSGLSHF
The data set can be described thus: cAMP HTRF agonist assay, EP1. It counts as cell-based.
Text: as §4, §5, §6, §7

Where [11] appears, read: HTRF (cAMP) human DP1 receptor assay, mean of at least three determinations, read-out: EC50 hDP1.
[12] abbreviates: cAMP HTRF agonist assay (Gs), Table Sup2, read-out: DP1 EC50.

Each structure is given as a SMILES string. Where two headings read alike, the source gives them in different places.

Sequence of rat IP (P43253 whole entry): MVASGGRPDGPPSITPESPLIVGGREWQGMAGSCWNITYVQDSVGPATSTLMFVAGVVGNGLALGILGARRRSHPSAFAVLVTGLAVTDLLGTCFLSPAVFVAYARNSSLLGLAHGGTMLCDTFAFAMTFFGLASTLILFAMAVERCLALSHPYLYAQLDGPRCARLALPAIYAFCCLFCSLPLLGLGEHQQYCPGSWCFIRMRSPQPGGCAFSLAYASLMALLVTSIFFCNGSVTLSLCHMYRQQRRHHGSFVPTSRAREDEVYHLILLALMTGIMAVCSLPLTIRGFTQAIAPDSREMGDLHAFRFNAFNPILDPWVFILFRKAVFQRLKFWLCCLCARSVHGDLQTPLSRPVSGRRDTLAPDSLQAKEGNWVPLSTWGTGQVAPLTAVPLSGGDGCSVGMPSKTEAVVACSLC
Sequence of IP (P43119 whole entry): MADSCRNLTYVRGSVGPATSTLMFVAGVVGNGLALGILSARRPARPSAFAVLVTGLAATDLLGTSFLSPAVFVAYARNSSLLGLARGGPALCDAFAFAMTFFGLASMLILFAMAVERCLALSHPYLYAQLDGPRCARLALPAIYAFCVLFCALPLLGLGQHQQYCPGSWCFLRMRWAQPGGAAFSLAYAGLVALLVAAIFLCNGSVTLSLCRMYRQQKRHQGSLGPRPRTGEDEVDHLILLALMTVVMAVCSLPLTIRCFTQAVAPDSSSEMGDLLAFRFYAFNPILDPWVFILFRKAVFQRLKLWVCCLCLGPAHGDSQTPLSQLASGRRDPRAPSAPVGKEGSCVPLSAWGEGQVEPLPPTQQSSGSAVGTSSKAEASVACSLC
Sequence of EP2 (P43116 whole entry): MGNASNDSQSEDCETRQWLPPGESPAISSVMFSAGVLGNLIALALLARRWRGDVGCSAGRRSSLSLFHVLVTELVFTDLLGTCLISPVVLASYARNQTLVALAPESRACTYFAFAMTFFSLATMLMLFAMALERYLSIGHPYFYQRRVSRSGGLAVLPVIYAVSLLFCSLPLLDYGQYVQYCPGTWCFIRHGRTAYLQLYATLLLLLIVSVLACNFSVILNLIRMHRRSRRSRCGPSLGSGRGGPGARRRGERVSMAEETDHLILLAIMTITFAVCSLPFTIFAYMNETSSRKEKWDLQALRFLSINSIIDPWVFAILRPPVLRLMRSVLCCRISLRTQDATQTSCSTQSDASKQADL
Sequence of EP4 (P35408 whole entry): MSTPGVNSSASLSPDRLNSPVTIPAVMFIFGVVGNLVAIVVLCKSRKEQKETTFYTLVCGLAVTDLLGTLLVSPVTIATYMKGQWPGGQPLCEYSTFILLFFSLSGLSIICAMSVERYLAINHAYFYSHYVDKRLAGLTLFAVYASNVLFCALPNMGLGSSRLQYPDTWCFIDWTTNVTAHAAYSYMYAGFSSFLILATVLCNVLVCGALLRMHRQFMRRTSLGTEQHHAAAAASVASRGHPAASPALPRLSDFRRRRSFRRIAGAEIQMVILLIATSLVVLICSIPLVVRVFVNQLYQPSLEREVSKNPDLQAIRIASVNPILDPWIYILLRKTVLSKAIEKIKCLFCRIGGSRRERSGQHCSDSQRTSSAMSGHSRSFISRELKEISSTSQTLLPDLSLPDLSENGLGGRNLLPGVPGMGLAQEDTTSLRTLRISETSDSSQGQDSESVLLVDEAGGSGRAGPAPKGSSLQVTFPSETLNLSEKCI

For the molecule `COc1ccc(N(C(=O)OC[C@H]2CC[C@H](COCC(=O)O)CC2)c2ccccc2)cc1` [5e, 2-(((1r,4r)-4-(((4-Methoxyphenyl)(phenyl)carbamoyloxy)methyl)cyclohexyl)methoxy)acetic Acid], in data set [1], the IC50 (as a rule, the point on the concentration scale where inhibition reaches its midpoint) came out at 0.022 µM. In addition, in data set [2], the half-life is above 1 h. In data set [3], the EC50 (in general, the concentration needed to bring the measured effect to its halfway point) worked out at 0.165 µM and the Emax is 91%. For the same molecule, the half-life in data set [4] is above 1 h. For the same molecule, in [5], the Emax was found to be 83% and the EC50 was 0.0033 µM. Moreover, in data set [6], the area under the curve AUC(0-inf) (usually total exposure, with the tail of the curve extrapolated) was 3400 ng·h/mL; the bioavailability (commonly dose-corrected exposure relative to a reference, in per cent) is 100%; the Cmax (in general, the peak of the concentration-time curve) was found to be 950 ng/mL; the Tmax – broadly, the time at which the peak concentration occurs – amounted to 0.3 h. Further, in data set [6], the T1/2 stood at 0.3 h and the Clobs is 3.4 L h^–1 kg^–1. Further, in data set [7], the Emax was 74%. Moreover, the EC50 in data set [7] (setting [11]) was 0.24 µM.

As for `COc1cccc(N(C(=O)OC[C@H]2CC[C@H](COCC(=O)O)CC2)c2ccccc2)c1` [5j, 2-(((1r,4r)-4-(((3-Methoxyphenyl)(phenyl)carbamoyloxy)methyl)cyclohexyl)methoxy)acetic Acid], in [1], the IC50 worked out at 0.023 µM. Further, the half-life in data set [2] came out at 0.883 h. Moreover, in data set [3], the EC50 amounted to 0.47 µM and the Emax came to 94%. For the same molecule, the half-life in [4] is above 1 h. In [5], the Emax worked out at 92% and the concentration giving a half-maximal response (EC50) is 0.012 µM. Moreover, in [6], the AUC(0-inf) was 1900 ng·h/mL, the bioavailability is 86%, the Cmax amounted to 900 ng/mL and the Tmax was determined as 0.3 h. In data set [6], the T1/2 was determined as 3.3 h and the Clobs was found to be 5.1 L h^–1 kg^–1. Also, the Emax in data set [7] amounted to 68%. In addition, the EC50 in data set [7] (setting [11]) worked out at 1.72 µM.

In data set [1], `O=C(O)COC[C@H]1CC[C@H](COC(=O)N(c2ccccc2)c2ccc(F)cc2)CC1` [5l, 2-(((1r,4r)-4-(((4-Fluorophenyl)(phenyl)carbamoyloxy)methyl)cyclohexyl)methoxy)acetic Acid] displayed a half-inhibitory concentration (IC50) of 0.012 µM. Besides, the half-life in [2] is above 1 h. Moreover, in data set [3], the EC50 was 0.535 µM and the Emax turned out to be 91%. In addition, the half-life in [4] is above 1 h. For the same molecule, in [5], the Emax amounted to 89% and the EC50 came to 0.0066 µM. Besides, in data set [6], the AUC(0-inf) is 7900 ng·h/mL, the bioavailability was 100%, the Cmax was found to be 1200 ng/mL and the Tmax is 0.3 h. In data set [6], this molecule gave a T1/2 of 3.9 h and a Clobs of 1.8 L h^–1 kg^–1. For the same molecule, in [7], the Emax was 55%. Besides, the EC50 in data set [7] (setting [11]) turned out to be 0.62 µM.

With `O=C(O)COC[C@H]1CC[C@H](COC(=O)N(c2ccccc2)c2ccc(Cl)c(F)c2)CC1` [5m, 2-(((1r,4r)-4-(((4-Chloro-3-fluorophenyl)(phenyl)carbamoyloxy)methyl)cyclohexyl)methoxy)acetic Acid], the IC50 in data set [1] came to 0.023 µM. Besides, the half-life in [2] was above 1 h. Besides, in [3], the EC50 is 0.4 µM and the Emax was 92%. Besides, the half-life in data set [4] was above 1 h. Also, in data set [5], the Emax turned out to be 85% and the EC50 turned out to be 0.0034 µM. In data set [6], the AUC(0-inf) came out at 2600 ng·h/mL, the bioavailability is 88%, the Cmax stood at 3000 ng/mL and the Tmax is listed as 0.5 h. Moreover, in data set [6], the T1/2 was found to be 5 h and the Clobs came to 0.8 L h^–1 kg^–1. In addition, in [7], the Emax was 38%. In data set [7] (setting [11]), the EC50 amounted to 2.05 µM.

Regarding `O=C(O)COC[C@H]1CC[C@H](COC(=O)N(c2ccccc2)c2ccc(F)c(F)c2)CC1` [5o, 2-(((1r,4r)-4-(((3,4-Difluorophenyl)(phenyl)carbamoyloxy)methyl)cyclohexyl)methoxy)acetic Acid], the IC50 in data set [1] amounted to 0.019 µM. Besides, the half-life in data set [2] was above 1 h. For the same molecule, in data set [3], the concentration for a half-maximal effect (EC50) amounted to 0.64 µM and the Emax came to 95%. The half-life in [4] is above 1 h. In data set [5], the Emax came out at 88% and the concentration for a half-maximal effect (EC50) turned out to be 0.01 µM. Moreover, in [6], the AUC(0-inf) stood at 4500 ng·h/mL, the bioavailability was determined as 24%, the highest concentration (Cmax) came out at 1430 ng/mL and the Tmax is recorded as 0.833 h. Moreover, in data set [6], the T1/2 was found to be 3.2 h and the Clobs came to 0.6 L h^–1 kg^–1. Moreover, the Emax in data set [7] was 45%. The EC50 in data set [7] (setting [11]) is 5 µM.

For `O=C(O)CCCCCCC1C(=O)NC(=O)N1CCC(O)C1CCCCC1` (centres unmarked) [BW245C], the EC50 was above 10 µM in data set [8], 0.79 µM in [9] and 0.0008 µM in data set [7] (setting [12]). The “EP2 % I.A” value in data set [9] is 73%. Further, the “DP1 % I.A” value in [7] (cAMP HTRF agonist assay (Gs), Table Sup2) amounted to 98%.

Consider `CCCCC[C@H](O)/C=C/[C@H]1C(=O)C[C@H](O)[C@@H]1C/C=C\CCCC(=O)O` [PGD2], for which the concentration for a half-maximal effect (EC50) in data set [9] was above 10 µM; in data set [10], above 10 µM; in [7] (setting [12]) it was 0.0013 µM.

The values are drawn from publication PMC11602115 (Journal of Medicinal Chemistry, 2017).
